{"source": "patent US9557338B2", "about": "(SIGNAL PHARMACEUTICALS, LLC, priority 2012, dated 2017)", "key": {"Phospho-p70S6K (T389)": {"test_system": "Phospho-p70S6K (T389)", "assay": "MSD assay, phospho-p70S6K (T389) in cell lysates", "type": "cell-based", "method": "Determination of Phospho-p70S6K (T389) in Cell Lysates.\nMSD® biomarker detection assays provide a rapid and convenient method for measuring the total and phosphorylated levels of protein targets within a single small-volume sample. In the assay, an antibody for a specific protein target is coated on one electrode (or spot) per well. The samples (cell lysates) are added to the well with a solution containing the detection antibody labeled with an electrochemiluminescent (ECL) compound, MSD SULFOTAG™ label, over the course of one or more incubation periods. The total protein present in the sample binds to the capture antibodies immobilized on the working electrode surface; recruitment of the labeled detection antibody by bound phospho-p70S6K completes the sandwich. MSD Read Buffer that provides the appropriate chemical environment for ECL is added and the plate is read using an MSD SECTOR™ Imager. Inside the SECTOR Imager, a voltage is applied to the plate electrodes which cause the labels bound to the electrode surface to emit light. The instrument measures intensity of the emitted light to afford a quantitative measure of the amount of phosphorylated protein present in the sample.\nCells were plated in 96-well flat bottom plates at the required density determined for each cell line and the cells were allowed to equilibrate at 37° C., 5% CO2 overnight. The following day, the cells were treated with Compound 1 over a range of concentrations for one hour in 5% CO2 at 37° C. After the incubation period, the culture medium was removed carefully with an aspirator. The plate was placed on ice and 50 μL of 1× Tris Lysis Buffer were added to each well. The plate was placed on a shaker at 4° C. for one hour to lyse the cells. At that point, the plate was either frozen at −80° C. for later analysis or immediately assayed for phosphoproteins as described below. To monitor interassay variability, Compound 1 was compared among all plates as a reference standard.\nThe assay plate was incubated with 150 μL of MSD Blocking Buffer for one hour with shaking at room temperature. The plates were washed 3 times with Tris Wash Buffer. Then 35 μL of cell lysate was added to the wells and incubated for one hour with shaking at room temperature. The solution was removed from the wells and the plate was washed 3 times with wash buffer. Twenty-five microliters of the appropriate antibody solution was then incubated for one hour with shaking at room temperature. The solution was removed from the wells and the plate was washed 3 times with wash buffer. Then 150 μL of 1×MSD Read Buffer T was added to each well. The plate was read on the SECTOR Imager plate reader."}, "GSK-3β": {"test_system": "GSK-3β", "assay": "MSD assay, GSK-3β phosphorylation in cell lysates", "type": "cell-based"}, "[1]": {"conditions": "PC3 cell line, read-out: MSD p70S6K"}, "[2]": {"conditions": "PC3 cell line, read-out: MSD GSK-3β"}}, "note": "Where two headings read alike, the source gives them in different places.", "data": [{"compound": "Cc1cc(-c2nc[nH]n2)c(F)cc1-c1cnc2c(n1)N(CC1CCC(O)CC1)C(=O)CN2", "note": "(centres unmarked) [C-147]", "values": [{"measurement": "IC50", "setting": "Phospho-p70S6K (T389); [1]", "result": "< 1.5", "unit": "nM"}, {"measurement": "IC50", "setting": "GSK-3β; [2]", "result": "> 500", "unit": "nM"}]}, {"compound": "Cc1cc(-c2nc[nH]n2)c(F)cc1-c1cnc2c(n1)N(C1CCOCC1)CC(=O)N2", "note": "[C-122]", "values": [{"measurement": "IC50", "setting": "Phospho-p70S6K (T389); [1]", "result": 6, "unit": "nM"}, {"measurement": "IC50", "setting": "GSK-3β; [2]", "result": 323, "unit": "nM"}]}, {"compound": "COCCN1C(=O)CNc2ncc(-c3ccc(-c4ncn[nH]4)nc3)nc21", "note": "[C-151]", "values": [{"measurement": "IC50", "setting": "Phospho-p70S6K (T389); [1]", "result": 120, "unit": "nM"}, {"measurement": "IC50", "setting": "GSK-3β; [2]", "result": "> 500", "unit": "nM"}]}, {"compound": "O=C1CNc2ncc(-c3ccc(O)nc3)nc2N1CCC1CCOCC1", "note": "[C-113]", "values": [{"measurement": "IC50", "setting": "Phospho-p70S6K (T389); [1]", "result": "> 500", "unit": "nM"}, {"measurement": "IC50", "setting": "GSK-3β; [2]", "result": "> 500", "unit": "nM"}]}, {"compound": "CCN1C(=O)CNc2ncc(-c3ccc(-c4nnc[nH]4)nc3C)nc21", "note": "[A-12, 1-ethyl-7-(2-methyl-6-(4H-1,2,4-triazol-3-yl)pyridin-3-yl)-3,4-dihydropyrazino[2,3-b]pyrazin-2(1H)-one]", "values": [{"measurement": "IC50", "setting": "Phospho-p70S6K (T389); Homo sapiens, HCT-116, HCT116 cell line, IGF, read-out: MSD p70S6K (IGF)", "result": 846, "unit": "nM"}, {"measurement": "IC50", "setting": "Phospho-p70S6K (T389); Homo sapiens, U-87 MG, U87MG cell line, read-out: MSD p70S6K", "result": 252, "unit": "nM"}, {"measurement": "IC50", "setting": "GSK-3β; Homo sapiens, HCT-116, HCT116 cell line, IGF, read-out: MSD GSK-3β (IGF)", "result": "> 2000", "unit": "nM"}, {"measurement": "IC50", "setting": "GSK-3β; Homo sapiens, U-87 MG, U87MG cell line, read-out: MSD GSK-3β", "result": "> 2000", "unit": "nM"}]}, {"compound": "COCCN1C(=O)CNc2ncc(-c3ccc(-c4cc[nH]n4)cc3)nc21", "note": "[C-112]", "values": [{"measurement": "IC50", "setting": "Phospho-p70S6K (T389); [1]", "result": 36, "unit": "nM"}, {"measurement": "IC50", "setting": "GSK-3β; [2]", "result": "> 500", "unit": "nM"}]}, {"compound": "Cc1cc(-c2nc[nH]n2)c(F)cc1-c1cnc2c(n1)N(C(C)C)C(=O)CN2", "note": "[C-128]", "values": [{"measurement": "IC50", "setting": "Phospho-p70S6K (T389); [1]", "result": 21, "unit": "nM"}, {"measurement": "IC50", "setting": "GSK-3β; [2]", "result": 1, "unit": "nM"}]}, {"compound": "COC1CCC(N2CC(=O)Nc3ncc(-c4cc(F)c(-c5nc[nH]n5)cc4C)nc32)CC1", "note": "(centres unmarked) [C-148]", "values": [{"measurement": "IC50", "setting": "Phospho-p70S6K (T389); [1]", "result": "< 1.5", "unit": "nM"}, {"measurement": "IC50", "setting": "GSK-3β; [2]", "result": 65, "unit": "nM"}]}, {"compound": "COCCN1CC(=O)Nc2ncc(-c3cc(F)c(-c4nc[nH]n4)cc3C)nc21", "note": "[C-131]", "values": [{"measurement": "IC50", "setting": "Phospho-p70S6K (T389); [1]", "result": 118, "unit": "nM"}, {"measurement": "IC50", "setting": "GSK-3β; [2]", "result": "> 500", "unit": "nM"}]}, {"compound": "O=C1CNc2ncc(-c3cccc4[nH]ccc34)nc2N1CCC1CCOCC1", "note": "[C-145]", "values": [{"measurement": "IC50", "setting": "Phospho-p70S6K (T389); [1]", "result": "> 500", "unit": "nM"}, {"measurement": "IC50", "setting": "GSK-3β; [2]", "result": "> 500", "unit": "nM"}]}, {"compound": "CNc1ccc(-c2cnc3c(n2)N(CCC2CCOCC2)C(=O)CN3)cn1", "note": "[C-114]", "values": [{"measurement": "IC50", "setting": "Phospho-p70S6K (T389); [1]", "result": 184, "unit": "nM"}, {"measurement": "IC50", "setting": "GSK-3β; [2]", "result": 2030, "unit": "nM"}]}, {"compound": "Nc1ncc(-c2cnc3c(n2)N(CCC2CCOCC2)C(=O)CN3)cn1", "note": "[C-116]", "values": [{"measurement": "IC50", "setting": "Phospho-p70S6K (T389); [1]", "result": 303, "unit": "nM"}, {"measurement": "IC50", "setting": "GSK-3β; [2]", "result": 3990, "unit": "nM"}]}, {"compound": "O=C1CN(CC2CCC(O)CC2)c2nc(-c3ccc(-c4nc[nH]n4)nc3)cnc2N1", "note": "(centres unmarked) [C-154]", "values": [{"measurement": "IC50", "setting": "Phospho-p70S6K (T389); [1]", "result": 1520, "unit": "nM"}, {"measurement": "IC50", "setting": "GSK-3β; [2]", "result": "> 5000", "unit": "nM"}]}, {"compound": "CCN1C(=O)CNc2ncc(-c3ccc(-c4ncn[nH]4)nc3)nc21", "note": "[C-150]", "values": [{"measurement": "IC50", "setting": "Phospho-p70S6K (T389); [1]", "result": 38, "unit": "nM"}, {"measurement": "IC50", "setting": "GSK-3β; [2]", "result": "> 500", "unit": "nM"}]}, {"compound": "CC(C)N1C(=O)CNc2ncc(-c3ccc(-c4ncn[nH]4)nc3)nc21", "note": "[C-138]", "values": [{"measurement": "IC50", "setting": "Phospho-p70S6K (T389); [1]", "result": 40, "unit": "nM"}, {"measurement": "IC50", "setting": "GSK-3β; [2]", "result": 181, "unit": "nM"}]}, {"compound": "COC1CCC(CN2C(=O)CNc3ncc(-c4cc(F)c(-c5nc[nH]n5)cc4C)nc32)CC1", "note": "(centres unmarked) [C-167]", "values": [{"measurement": "IC50", "setting": "Phospho-p70S6K (T389); [1]", "result": "< 1.5", "unit": "nM"}, {"measurement": "IC50", "setting": "GSK-3β; [2]", "result": "< 1.5", "unit": "nM"}]}, {"compound": "Nc1cc(-c2cnc3c(n2)N(CCC2CCOCC2)C(=O)CN3)ccn1", "note": "[C-115]", "values": [{"measurement": "IC50", "setting": "Phospho-p70S6K (T389); [1]", "result": "> 500", "unit": "nM"}, {"measurement": "IC50", "setting": "GSK-3β; [2]", "result": "> 500", "unit": "nM"}]}, {"compound": "O=C1CNc2ncc(-c3ccnc(O)c3)nc2N1CCC1CCOCC1", "note": "[C-126]", "values": [{"measurement": "IC50", "setting": "Phospho-p70S6K (T389); [1]", "result": 480, "unit": "nM"}, {"measurement": "IC50", "setting": "GSK-3β; [2]", "result": 1140, "unit": "nM"}]}, {"compound": "COC1CCC(N2C(=O)CNc3ncc(-c4cc(F)c(-c5ncn[nH]5)cc4C)nc32)CC1", "note": "(centres unmarked) [C-137]", "values": [{"measurement": "IC50", "setting": "Phospho-p70S6K (T389); [1]", "result": 52, "unit": "nM"}, {"measurement": "IC50", "setting": "GSK-3β; [2]", "result": 394, "unit": "nM"}]}, {"compound": "CCN1C(=O)CNc2ncc(-c3ccc4[nH]ccc4n3)nc21", "note": "[C-166]", "values": [{"measurement": "IC50", "setting": "Phospho-p70S6K (T389); [1]", "result": "> 500", "unit": "nM"}, {"measurement": "IC50", "setting": "GSK-3β; [2]", "result": "> 500", "unit": "nM"}]}, {"compound": "O=C1CNc2ncc(-c3ccnc4[nH]ccc34)nc2N1CCC1CCOCC1", "note": "[C-161]", "values": [{"measurement": "IC50", "setting": "Phospho-p70S6K (T389); [1]", "result": 385, "unit": "nM"}, {"measurement": "IC50", "setting": "GSK-3β; [2]", "result": 2790, "unit": "nM"}]}, {"compound": "Cc1cc(-c2nc[nH]n2)c(F)cc1-c1cnc2c(n1)N(C1CCC(O)CC1)CC(=O)N2", "note": "(centres unmarked) [C-133]", "values": [{"measurement": "IC50", "setting": "Phospho-p70S6K (T389); [1]", "result": 61, "unit": "nM"}, {"measurement": "IC50", "setting": "GSK-3β; [2]", "result": "> 500", "unit": "nM"}]}, {"compound": "Cc1cc(-c2nc[nH]n2)c(F)cc1-c1cnc2c(n1)N([C@H]1CC[C@H](O)CC1)C(=O)CN2", "note": "[C-130]", "values": [{"measurement": "IC50", "setting": "Phospho-p70S6K (T389); [1]", "result": "< 0.835", "unit": "nM"}, {"measurement": "IC50", "setting": "GSK-3β; [2]", "result": 12, "unit": "nM"}]}, {"compound": "Cc1cc(-c2nc[nH]n2)ncc1-c1cnc2c(n1)N(CC1CCOCC1)CC(=O)N2", "note": "[C-164]", "values": [{"measurement": "IC50", "setting": "Phospho-p70S6K (T389); [1]", "result": 1, "unit": "nM"}, {"measurement": "IC50", "setting": "GSK-3β; [2]", "result": 275, "unit": "nM"}]}, {"compound": "COC1CCC(N2C(=O)CNc3ncc(-c4ccc(-c5ncn[nH]5)nc4)nc32)CC1", "note": "(centres unmarked) [C-139]", "values": [{"measurement": "IC50", "setting": "Phospho-p70S6K (T389); [1]", "result": 40, "unit": "nM"}, {"measurement": "IC50", "setting": "GSK-3β; [2]", "result": "> 500", "unit": "nM"}]}, {"compound": "O=C1CNc2ncc(-c3ccc(-c4nc[nH]n4)nc3)nc2N1C1CCOCC1", "note": "[C-152]", "values": [{"measurement": "IC50", "setting": "Phospho-p70S6K (T389); [1]", "result": 20, "unit": "nM"}, {"measurement": "IC50", "setting": "GSK-3β; [2]", "result": "> 500", "unit": "nM"}]}, {"compound": "O=C1CNc2ncc(-c3cccc4[nH]cnc34)nc2N1CCC1CCOCC1", "note": "[C-162]", "values": [{"measurement": "IC50", "setting": "Phospho-p70S6K (T389); [1]", "result": 4750, "unit": "nM"}, {"measurement": "IC50", "setting": "GSK-3β; [2]", "result": "> 5000", "unit": "nM"}]}]}
